According to PubChem BioAssay (NCI):
Where “and” joins values, the source holds several entries; their conditions need not be identical. Equal entries are not always repeated.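 Growth conditions: 96-well plates. Treatment: test compound, 48 hours, 5 concentrations. Analysis: linear interpolation between bracketing concentrations; unreached endpoints set to highest concentration. GI50: concentration for 50% inhibition of growth. TGI denotes the concentration required for complete inhibition of growth.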

How the values were obtained:
Assay in all cases: DTP human tumour cell line panel, 48 h
KM12 colon = test system: KM12 colon
M14 melanoma = test system: M14 melanoma
NCI-H23 lung = test system: NCI-H23 lung
NCI-H522 lung = test system: NCI-H522 lung
OVCAR-8 ovarian = test system: OVCAR-8 ovarian
SK-MEL-5 melanoma = test system: SK-MEL-5 melanoma
SK-OV-3 ovarian = test system: SK-OV-3 ovarian
SN12C renal = test system: SN12C renal
HS 578T breast = test system: HS 578T breast
PC-3 prostate = test system: PC-3 prostate

Row | Structure (SMILES) | TGI (KM12 colon) [µM] | TGI (M14 melanoma) [µM] | TGI (NCI-H23 lung) [µM] | TGI (NCI-H522 lung) [µM] | TGI (OVCAR-8 ovarian) [µM] | TGI (SK-MEL-5 melanoma) [µM] | TGI (SK-OV-3 ovarian) [µM] | TGI (SN12C renal) [µM] | GI50 (HS 578T breast) [µM] | TGI (HS 578T breast) [µM] | GI50 (KM12 colon) | GI50 (M14 melanoma) [µM] | GI50 (NCI-H23 lung) | GI50 (NCI-H522 lung) | GI50 (OVCAR-8 ovarian) | GI50 (PC-3 prostate) [µM] | TGI (PC-3 prostate) [µM] | GI50 (SK-MEL-5 melanoma) | GI50 (SN12C renal) | GI50 (SK-OV-3 ovarian)
1 | COC(=O)C(Cc1nc2ccccc2[nH]c1=O)C(=O)C(=O)Nc1ccc([N+](=O)[O-])cc1[N+](=O)[O-] (stereo not drawn) | 30.1 | 32.4 | 35.9 | 20.8 | 52.6 | 33.1 | 64.6 | 50.6 | – | – | – | – | – | – | – | – | – | – | – | –
2 | CCOC(=N)CC(=O)c1ccccc1 | > 100 | > 100 | > 100 | > 100 | > 100 | > 100 | > 100 | > 100 | – | – | – | – | – | – | – | – | – | – | – | –
3 | CCc1cc(CCC(=O)Nc2c(C)cccc2C)[nH]n1 | > 100 | > 100 | > 100 | > 100 | > 100 | > 100 | > 100 | > 100 | – | – | – | – | – | – | – | – | – | – | – | –
4 | CC/C(CC(=O)CCC(=O)Nc1ccccc1[N+](=O)[O-])=N/NC(=O)C[n+]1ccccc1 | > 100 | > 100 | > 100 | > 100 | > 100 | > 100 | > 100 | > 100 | – | – | – | – | – | – | – | – | – | – | – | –
5 | Cc1cc(Cl)ccc1NC(=O)C(=O)C(C(=O)c1ccc2ccccc2c1)C1OC(=O)c2ccccc21 (stereo not drawn) | 52.3 | 34.3 | 26.3 | 23.4 | > 100 | 26.9 | 49.1 | 37.4 | – | – | – | – | – | – | – | – | – | – | – | –
6 | COc1ccc(OC)c(-c2cc(-c3ccc(Cl)cc3)nn2-c2ccc(S(=O)(=O)NC(C)=O)cc2)c1 | 46.2 | 8.21 | 25.6 | > 100 | 84.3 | 15.5 | – | 10.9 | 38.2 | > 100 | 20.3 µM | 3.04 | 11.3 µM | 32.4 µM | 21 µM | 3.61 | 21.9 | 2.07 µM | 3.02 µM | –
7 | CO[C@H](C(=O)[C@@H](O)[C@@H](C)O)[C@@H]1Cc2cc3cc(OC4CC(OC5CC(O)C(O)C(C)O5)C(O)C(C)O4)c(C)c(O)c3c(O)c2C(=O)[C@H]1OC1CC(OC2CC(OC3CC(C)(O)C(O)C(C)O3)C(O)C(C)O2)C(O)C(C)O1 (stereo partly drawn) | – | – | – | – | – | – | – | – | – | – | 0.0197 µg/mL and 0.0207 µg/mL | – | 0.0235 µg/mL and 0.0192 µg/mL | 0.0143 µg/mL and 0.0124 µg/mL | 0.0281 µg/mL and 0.0194 µg/mL | – | – | 0.0199 µg/mL | 0.0272 µg/mL and 0.011 µg/mL | 0.0437 µg/mL
8 | CCC(CNc1cc(OC)cc2cccnc12)NC1CCCCC1 (stereo not drawn) | > 100 | 33.5 | > 100 | – | > 100 | 30.6 | > 100 | > 100 | 15.2 | 95.6 | 27.6 µM | 17.1 | 51.3 µM | – | 51.1 µM | – | – | 15.8 µM | > 100 µM | > 100 µM
9 | CCOC(=O)C(C)(C)Oc1ccc(/C=C/C(=O)c2ccc(Cl)cc2)cc1 | – | 34.7 | 37.1 | – | 41.3 | 28.3 | – | 36 | – | – | – | – | – | – | – | – | – | – | – | –
10 | COC(C(=O)NCCCCNC(=O)C(OC)c1ccccc1)c1ccccc1 (stereo not drawn) | > 100 | > 100 | > 100 | > 100 | > 100 | > 100 | > 100 | > 100 | – | – | – | – | – | – | – | – | – | – | – | –
11 | CN(C)C=C1C(Cl)=C(C=O)CC(C=O)=C1Cl | 22.1 | 26.7 | 37.1 | 4.14 | 12.6 | 23.5 | 79.7 | > 100 | – | – | – | – | – | – | – | – | – | – | – | –
12 | O=C(Nc1cccc(O)c1)C(=O)C(C(=O)c1ccc(Cl)c(Cl)c1)C1OC(=O)c2ccccc21 (stereo not drawn) | 41.4 | 37.1 | 32.6 | 21.8 | 37.8 | 37.6 | 51.1 | 38.4 | – | – | – | – | – | – | – | – | – | – | – | –
13 | O=C1OC(O)C(Oc2c(Cl)cccc2Cl)=C1Cl (stereo not drawn) | 54.1 | 33.2 | 38.9 | 27.3 | 37.9 | 27.5 | 43.5 | 35 | – | – | – | – | – | – | – | – | – | – | – | –
14 | CC(C)(C)C1CCC2c3c([nH]c4ccccc34)C3C(=O)N(c4ccccc4)C(=O)C3C2C1 (stereo not drawn) | > 100 | 19.7 | 40.1 | – | 17.8 | – | 5.18 | 17.4 | – | – | – | – | – | – | – | – | – | – | – | –
15 | CSc1n[n+]2c(s1)SCCC2 | > 100 | > 100 | > 100 | > 100 | > 100 | > 100 | – | > 100 | – | – | – | – | – | – | – | – | – | – | – | –
16 | O=[N+]([O-])C1Cc2ccccc2OC1c1ccccc1 (stereo not drawn) | > 100 | > 100 | > 100 | > 100 | > 100 | > 100 | > 100 | 63 | – | – | – | – | – | – | – | – | – | – | – | –
17 | CN/N=C(\C)C(CN(C)C)C(c1ccccc1)c1c(O)c2ccccc2oc1=O (stereo not drawn) | > 100 | > 100 | > 100 | > 100 | > 100 | > 100 | – | > 100 | – | > 100 | – | – | – | – | – | – | > 100 | – | – | –
18 | CC(=O)[CH-]C(=O)c1ccccc1.CC(=O)[CH-]C(=O)c1ccccc1.CCOCC[O-].CCOCC[O-].[Ti+4] | 77.3 | 37.1 | – | 36.5 | 41.7 | 53.3 | 74.9 | 73.4 | – | – | 27.1 µM | 16.7 | – | 17 µM | 19.6 µM | – | – | 22.5 µM | 20.6 µM | 25.2 µM
19 | Cn1c2ccc(Br)cc2c2c3c(c4c5ccccc5[nH]c4c21)C(=O)N(O)C3=O | 0.902 | 0.307 | 0.398 | 0.286 | 0.683 | 0.266 | 0.773 | 0.445 | 0.291 | 1.04 | 0.237 µM | 0.0877 | 0.0872 µM | 0.0506 µM | 0.149 µM | – | – | 0.128 µM | 0.0814 µM | 0.265 µM
20 | O=c1c2cccc3cccc(c4n1CCN=4)c32 | > 100 | > 100 | > 100 | > 100 | > 100 | > 100 | > 100 | > 100 | – | – | – | – | – | – | – | – | – | – | – | –
21 | C=C[C@@]1(O)CCCC2=C(C(=O)OCC)CC[C@]21C | > 100 | > 100 | > 100 | > 100 | > 100 | > 100 | > 100 | > 100 | – | – | – | – | – | – | – | – | – | – | – | –
22 | FC(F)(F)C1(Br)C(c2ccccc2)=C1c1ccccc1 | 29.4 | 35 | 32.7 | – | 30.5 | 28.8 | > 100 | 28.3 | – | – | – | – | – | – | – | – | – | – | – | –
